Patent US8603498B2, “Lipo-phosphated or lipo-sulphated compound, compositions comprising it and topical uses thereof” (Sederma, S.A.S., priority 2010, dated 2013)

Assays:
cholesterol [1] = assay: Cholesterol in keratinocytes by immunolabelling (IMF); type: cell-based, human; details: 5 ppm, 7 days
Method: Cultured human keratinocytes at confluence were placed in contact with the Lipo-Phosphomalate in a medium slightly enriched with calcium to promote the establishment of intercellular junctions and thus improve the anchorage of differentiated cells to the underlying cells. A negative control was carried out in the same medium. After a 7-day contact period, the layer was labeled with a cholesterol-specific fluorescent. The intensity of the labeling was analysed on the photos and compared to that obtained with the negative control (Table 6).

hyaluronic acid = assay: Synthesis of hyaluronic acid by human keratinocytes (ELISA); type: cell-based; details: for hyaluronic acid ng/10^e6 cells: 3 days, supernatant
Method: Protocol: Human keratinocytes are humains were cultivated in MW24 plates for 24 h. Cells were contacted or not with the Lipo-Phosphomalate for 3 days. Culture surpernatants were taken and an assay of the quantity of hyaluronic acid was achieved. Retinoic acid was used as the positive control.

filaggrin/profilaggrin = assay: Filaggrin synthesis on human keratinocytes (immunofluorescent method); type: cell-based; details: for Filaggrin/profilaggrin (UFA/10^6 cell.): 21 days contact; for Filaggrin/profilaggrin Change (%): vs control
Method: Protocol: Human keratinocytes were cultivated up to confluence. The cells were then placed in contact/not contact with the solubilized Lipo-Phosphomalate for 21 days. At the end of this contact period, labelling common to both filaggrin and profilaggrin was carried out on cell layers using specific antibodies. Labelling intensity was analysed on photos (n=15 photos) and compared to that obtained for the negative control and for vitamin D3 at 10^−7M used as a positive differentiation control.

transglutaminase-1 m-RNA = assay: Transglutaminase-1 m-RNA in keratinocytes by qRT-PCR; type: cell-based, human; details: 5 ppm, 14 days; for m-RNA % change: after normalisation by the housekeeping gene
From the text: ByqRT-PCR: Human keratinocytes were placed in contact/not placed in contact with solubilised for 14 days. At the end of the contact period, the cultures were stopped and m-RNA allowing production of transglutaminase-1 protein was quantified using the RT-PCR method.
After extraction and purification of the m-RNA, copies are made in DNA using a Reverse Transcriptase (RT). The number of copies of a given m-RNA (here that of TGase) is thereafter amplified using two oligonucleotides (called primers) specific to the gene of TGase and to an enzyme (PCR=polymerase chain reaction) during a series of amplification cycles, each of which doubling the number of copies present. The result of this amplication is measured by fluorescence. Ct is the number of cycles required to achieve a given fluorescence level (arbitrarily set). It is clear, that the more m-RNA of a given gene present in the starting culture there are, the fewer cycles (Ct) are needed to reach the set level of fluorescence.

melanocytes = assay: Lipid production in melanocytes; type: cell-based
From the text: This lipid production by the Lipo-Phosphomalate was not observed in fibroblasts or melanocytes. It is therefore a specific effect related to the metabolism of keratinocyte during its differentiation.

triglycerides = assay: Synthesis of intracellular triglycerides in 3T3-L1 cells (enzymatic method); type: cell-based
Method: (§1) 3T3-L1 cells were cultivated until sub-confluence, then induced to differentiate with the appropriate mixture with or without the Lipo-Phosphomalate at different concentrations. After 3 days of incubation, the differenciation mixture is replaced by a new maintaining culture medium, in the presence or not of the Lipo-Phosphomalate. After 3 days of incubation, the quantity of intracellular triglycerides is measured by enzymatic method.

laminin = assay: Laminin synthesis by human keratinocytes (ELISA); type: cell-based; details: for laminin ng/10^e6cells: 3 days, supernatant
Method: Human keratinocytes are humains were cultivated in MW24 plates for 24 h. Cells were contacted or not with the Lipo-Phosphomalate for 3 days. Culture surpernatants were taken and an assay of the quantity of laminin was achieved. TGF-β1 was used as the positive control.

G3PDH = G3PDH activity in differentiating 3T3-L1 cells; type: cell-based
Method: as §1, with “cell layers are collected and the activity” for “quantity”, “G3PDH” for “intracellular triglycerides”, “assayed.” for “measured by enzymatic method.”

cholesterol [2] = assay: Cholesterol in keratinocytes by HPTLC; type: cell-based, human; details: 5 ppm, 7 days
Method: (§2) The same protocol was followed as before but a larger quantity of keratinocyes was used on this occasion because of the limits of detection of the apparatus. After 7 days, the layers were rinsed, lipids extracted using solvents before being deposited on a thin-layer chromatography plate using an automated device. After migration and detection, the bands were analysed and quantified based on a range of standard lipids deposited on the same plate.

hydroxylated ceramides = assay: Hydroxylated ceramides in keratinocytes by HPTLC; type: cell-based, human; details: 5 ppm
Method: as §2
At the same time as the HPTLC cholesterol assay, an assay of hydroxylated and non-hydroxylated ceramides was carried out on the extracts.

collagen I = assay: Synthesis of collagen I on human dermal fibroblast (immunolabeling); type: cell-based
Method: Normal human fibroblasts (NHF) are cultivated in MW24 plates for 24 hours. The cells are contacted or not with the Lipo-Phosphomalate of the invention at various concentrations for 7 days. The synthesis of collagen I produced by the cells is then quantified by immunolabeling fixed on the layers using a specific antibody. Quantification by image analysis is then performed on the photos. TGF-β1 is used as positive control.
An analysis of variance was performed on the data (cases treated compared with untreated cases). In the case of identity of variances, a Student't test was then performed on the means.

SMILES: CCCCCCCCCCCCCCOC(=O)CC(OP(=O)(O)O)C(=O)O (stereo not shown) [Lipo-Phosphomalate, 2-phosphate-succinic-acid-4-tetradecyle ester]
- IMF Cholesterol (UFA/10^6 cell.) (cholesterol [1]): 4.98 ± 2.59 UFA/10^6 cell.
- IMF Cholesterol % Change (cholesterol [1]; vs control): +107%; p < 0.04
- hyaluronic acid % Change/control (hyaluronic acid; 1.67 ppm): +16%; p < 0.01
- hyaluronic acid ng/10^e6 cells (hyaluronic acid; 1.67 ppm): 1015 +/− 46 ng/10^e6 cells
- hyaluronic acid % Change/control (hyaluronic acid; 5 ppm): +57%; p < 0.01
- hyaluronic acid ng/10^e6 cells (hyaluronic acid; 5 ppm): 1374 +/− 50 ng/10^e6 cells
- hyaluronic acid % Change/control (hyaluronic acid; 8.33 ppm): +69%; p < 0.01
- hyaluronic acid ng/10^e6 cells (hyaluronic acid; 8.33 ppm): 1480 +/− 51 ng/10^e6 cells
- Filaggrin/profilaggrin (UFA/10^6 cell.) (filaggrin/profilaggrin; 1.5 ppm): 3.04 ± 1.21 UFA/10^6 cell.
- Filaggrin/profilaggrin Change (%) (filaggrin/profilaggrin; 1.5 ppm): +119%; p < 0.01
- Filaggrin/profilaggrin (UFA/10^6 cell.) (filaggrin/profilaggrin; 5 ppm): 5.00 ± 1.58 UFA/10^6 cell.
- Filaggrin/profilaggrin Change (%) (filaggrin/profilaggrin; 5 ppm, listed as Solubilised Lipo-Phosphomalate): +259%; p < 0.01
- Filaggrin/profilaggrin Change (%) (filaggrin/profilaggrin; 5 ppm, listed as solubilised Lipo-Phosphomalate): +259%
- m-RNA % change (transglutaminase-1 m-RNA; listed as Solubilised Lipo-Phosphomalate): +101%; p < 0.01
- m-RNA % change (transglutaminase-1 m-RNA; listed as solubilised Lipo-Phosphomalate): ~+100%
- m-RNA Number of cycles: Ct (transglutaminase-1 m-RNA; control 24.60 ± 0.42): 23.25 ± 0.46
- lipid production (cholesterol, ceramides) (melanocytes): not observed
- intracellular triglycerides % Change/control (triglycerides; 10 ppm): +112%; p < 0.01
- intracellular triglycerides % Change/control (triglycerides; 15 ppm): +210%; p < 0.01
- laminin % Variation/control (laminin; 1.67 ppm): +64%; p < 0.01
- laminin ng/10^e6cells (laminin; 1.67 ppm): 190 +/− 11 ng/10^e6cells
- laminin % Variation/control (laminin; 5 ppm): +187%; p < 0.01
- laminin ng/10^e6cells (laminin; 5 ppm): 333 +/− 10 ng/10^e6cells
- laminin % Variation/control (laminin; 8.33 ppm): +196%; p < 0.01
- laminin ng/10^e6cells (laminin; 8.33 ppm): 343 +/− 10 ng/10^e6cells
- G3PDH activity % Change/control (G3PDH; 10 ppm): +158%; p < 0.01
- G3PDH activity % Change/control (G3PDH; 15 ppm): +225%; p < 0.01
- HPTLC Cholesterol (pg/10^6 cell.) (cholesterol [2]): 30.89 ± 7.20 pg/10^6 cell.
- HPTLC Cholesterol % Change (cholesterol [2]; vs control): +53%; p < 0.05
- Hydroxylated Ceramides (pg/10^5 cell.) (hydroxylated ceramides; 7 days): 10.50 ± 1.12 pg/10^5 cell.
- Hydroxylated Ceramides Change (number of times) (hydroxylated ceramides; vs control): ×7.5
- collagen I AFU mean (collagen I; Eq 1%, 7 days): 8.1 +/− 5.6 AFU
- collagen I % Variation/control (collagen I; Eq 1%, p = 0.09): +60%;
- collagen I % Variation/control (collagen I; Eq 3%): +315%;
